Measured values reported in PubChem BioAssay (NCI).
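Briefly, cells in 96-well plates were exposed to five compound concentrations for 48 h, and endpoints were estimated by linear interpolation. TGI: concentration producing complete growth inhibition.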

Assays:
Test in all cases: NCI-60 cell line screen, 48 h
UACC-62 melanoma = test system: UACC-62 melanoma
K-562 leukemia = test system: K-562 leukemia
RPMI-8226 leukemia = test system: RPMI-8226 leukemia
SR leukemia = test system: SR leukemia
BT-549 breast = test system: BT-549 breast
OVCAR-3 ovarian = test system: OVCAR-3 ovarian
CAKI-1 renal = test system: CAKI-1 renal
UO-31 renal = test system: UO-31 renal
MDA-MB-231 breast = test system: MDA-MB-231 breast
HCC-2998 colon = test system: HCC-2998 colon
SK-MEL-5 melanoma = test system: SK-MEL-5 melanoma
HL-60(TB) leukemia = test system: HL-60(TB) leukemia
HCT-15 colon = test system: HCT-15 colon
U251 CNS = test system: U251 CNS
HT29 colon = test system: HT29 colon
IGROV1 ovarian = test system: IGROV1 ovarian
786-0 renal = test system: 786-0 renal
UACC-257 melanoma = test system: UACC-257 melanoma
SK-OV-3 ovarian = test system: SK-OV-3 ovarian
COLO 205 colon = test system: COLO 205 colon
OVCAR-5 ovarian = test system: OVCAR-5 ovarian
TK-10 renal = test system: TK-10 renal
SN12C renal = test system: SN12C renal
MCF7 breast = test system: MCF7 breast
DU-145 prostate = test system: DU-145 prostate
CCRF-CEM leukemia = test system: CCRF-CEM leukemia
SF-539 CNS = test system: SF-539 CNS
SNB-19 CNS = test system: SNB-19 CNS
T-47D breast = test system: T-47D breast
PC-3 prostate = test system: PC-3 prostate
NCI-H460 lung = test system: NCI-H460 lung
A549 NSCLC = test system: A549 NSCLC
HOP-62 NSCLC = test system: HOP-62 NSCLC
EKVX NSCLC = test system: EKVX NSCLC
NCI/ADR-RES ovarian = test system: NCI/ADR-RES ovarian
MOLT-4 leukemia = test system: MOLT-4 leukemia
RXF 393 renal = test system: RXF 393 renal
SW-620 colon = test system: SW-620 colon
OVCAR-8 ovarian = test system: OVCAR-8 ovarian
SF-268 CNS = test system: SF-268 CNS
SK-MEL-28 melanoma = test system: SK-MEL-28 melanoma
SNB-75 CNS = test system: SNB-75 CNS
MDA-N = test system: MDA-N
MDA-MB-435 = test system: MDA-MB-435
M14 melanoma = test system: M14 melanoma
MALME-3M melanoma = test system: MALME-3M melanoma
A498 renal = test system: A498 renal
SK-MEL-2 melanoma = test system: SK-MEL-2 melanoma
ACHN renal = test system: ACHN renal
KM12 colon = test system: KM12 colon
HCT-116 colon = test system: HCT-116 colon
LOX IMVI melanoma = test system: LOX IMVI melanoma
NCI-H522 lung = test system: NCI-H522 lung
SF-295 CNS = test system: SF-295 CNS
HOP-92 NSCLC = test system: HOP-92 NSCLC
NCI-H226 lung = test system: NCI-H226 lung
HS 578T breast = test system: HS 578T breast
OVCAR-4 ovarian = test system: OVCAR-4 ovarian
NCI-H23 lung = test system: NCI-H23 lung

`NC1CC(=O)c2c(Br)csc21` (configuration not stated) gave a TGI (UACC-62 melanoma) of 58.7 µM, a TGI (K-562 leukemia) greater than 100 µM and a TGI (RPMI-8226 leukemia) greater than 100 µM. The TGI (SR leukemia) was greater than 100 µM, the TGI (BT-549 breast) was 97.5 µM and the TGI (OVCAR-3 ovarian) was greater than 100 µM. It also gave a TGI (CAKI-1 renal) greater than 100 µM, a TGI (UO-31 renal) of 81.2 µM and a TGI (MDA-MB-231 breast) greater than 100 µM. It also gave a TGI (HCC-2998 colon) of 44.8 µM, a TGI (SK-MEL-5 melanoma) greater than 100 µM and a TGI (HL-60(TB) leukemia) of 81.9 µM. The TGI (HCT-15 colon) was greater than 100 µM, the TGI (U251 CNS) was 53.1 µM and the TGI (HT29 colon) was greater than 100 µM. For the same compound, the TGI (IGROV1 ovarian) was greater than 100 µM, the TGI (786-0 renal) was greater than 100 µM and the TGI (UACC-257 melanoma) was greater than 100 µM. For the same compound, the TGI (SK-OV-3 ovarian) was greater than 100 µM, the TGI (COLO 205 colon) was greater than 100 µM and the TGI (OVCAR-5 ovarian) was greater than 100 µM. It also gave a TGI (TK-10 renal) of 96.7 µM, a TGI (SN12C renal) greater than 100 µM and a TGI (MCF7 breast) greater than 100 µM. The TGI (DU-145 prostate) was greater than 100 µM, the TGI (CCRF-CEM leukemia) was greater than 100 µM and the TGI (SF-539 CNS) was greater than 100 µM. For the same compound, the TGI (SNB-19 CNS) was greater than 100 µM, the TGI (T-47D breast) was greater than 100 µM and the TGI (PC-3 prostate) was greater than 100 µM. The TGI (NCI-H460 lung) was greater than 100 µM, the TGI (A549 NSCLC) was greater than 100 µM and the TGI (HOP-62 NSCLC) was greater than 100 µM. The TGI (EKVX NSCLC) was greater than 100 µM, the TGI (NCI/ADR-RES ovarian) was greater than 100 µM and the TGI (MOLT-4 leukemia) was greater than 100 µM. The TGI (RXF 393 renal) was greater than 100 µM, the TGI (SW-620 colon) was 77.7 µM and the TGI (OVCAR-8 ovarian) was greater than 100 µM. It also gave a TGI (SF-268 CNS) greater than 100 µM, a TGI (SK-MEL-28 melanoma) of 79.9 µM and a TGI (SNB-75 CNS) greater than 100 µM. For the same compound, the TGI (MDA-N) was greater than 100 µM, the TGI (MDA-MB-435) was 66.3 µM and the TGI (M14 melanoma) was greater than 100 µM. The TGI (MALME-3M melanoma) was greater than 100 µM, the TGI (A498 renal) was greater than 100 µM and the TGI (SK-MEL-2 melanoma) was greater than 100 µM. For the same compound, the TGI (ACHN renal) was greater than 100 µM, the TGI (KM12 colon) was greater than 100 µM and the TGI (HCT-116 colon) was greater than 100 µM.
For `CCN(CC)CCC(=O)/C=C/c1ccccc1`, the TGI (K-562 leukemia) was 13.6 µM, the TGI (LOX IMVI melanoma) was 7.16 µM and the TGI (RPMI-8226 leukemia) was 7.5 µM. The TGI (SR leukemia) was 16.1 µM, the TGI (BT-549 breast) was 21.9 µM and the TGI (OVCAR-3 ovarian) was 12.1 µM. The TGI (CAKI-1 renal) was 14.1 µM, the TGI (UO-31 renal) was 25.8 µM and the TGI (MDA-MB-231 breast) was 28.9 µM. It also gave a TGI (HCC-2998 colon) of 34.8 µM, a TGI (SK-MEL-5 melanoma) of 44.8 µM and a TGI (HL-60(TB) leukemia) greater than 100 µM. It also gave a TGI (HCT-15 colon) of 32 µM, a TGI (NCI-H522 lung) of 24.2 µM and a TGI (U251 CNS) of 25.6 µM. It also gave a TGI (SF-295 CNS) of 40.1 µM, a TGI (HT29 colon) of 12.4 µM and a TGI (HOP-92 NSCLC) of 28.7 µM. For the same compound, the TGI (IGROV1 ovarian) was 35.5 µM, the TGI (786-0 renal) was 7.62 µM and the TGI (UACC-257 melanoma) was 31.6 µM. For the same compound, the TGI (NCI-H226 lung) was 44.9 µM, the TGI (HS 578T breast) was 39.9 µM and the TGI (COLO 205 colon) was 18 µM. The TGI (OVCAR-5 ovarian) was 31.3 µM, the TGI (TK-10 renal) was 32.3 µM and the TGI (SN12C renal) was 38.6 µM. The TGI (MCF7 breast) was 10.6 µM, the TGI (DU-145 prostate) was greater than 73.9 µM and the TGI (CCRF-CEM leukemia) was greater than 47.2 µM. For the same compound, the TGI (SF-539 CNS) was 37.5 µM, the TGI (SNB-19 CNS) was 37.1 µM and the TGI (PC-3 prostate) was 27.3 µM. It also gave a TGI (NCI-H460 lung) of 32.6 µM, a TGI (A549 NSCLC) of 39.9 µM and a TGI (OVCAR-4 ovarian) greater than 94.4 µM. For the same compound, the TGI (HOP-62 NSCLC) was 54.5 µM, the TGI (EKVX NSCLC) was 22.6 µM and the TGI (NCI/ADR-RES ovarian) was 55.1 µM. It also gave a TGI (MOLT-4 leukemia) of 24.2 µM, a TGI (RXF 393 renal) of 21.5 µM and a TGI (SW-620 colon) of 23.4 µM. It also gave a TGI (OVCAR-8 ovarian) of 52.5 µM, a TGI (SF-268 CNS) of 15.6 µM and a TGI (SK-MEL-28 melanoma) of 30.8 µM. It also gave a TGI (SNB-75 CNS) of 28.8 µM, a TGI (MDA-N) of 26.4 µM and a TGI (MDA-MB-435) of 23.2 µM. It also gave a TGI (M14 melanoma) of 33 µM, a TGI (MALME-3M melanoma) of 33.1 µM and a TGI (A498 renal) greater than 60.6 µM. It also gave a TGI (SK-MEL-2 melanoma) of 65.5 µM, a TGI (ACHN renal) of 26.2 µM and a TGI (KM12 colon) of 18.5 µM. The TGI (NCI-H23 lung) was 48.1 µM and the TGI (HCT-116 colon) was 22.4 µM.
